In patent US10927123B2, “Modulators of the beta-3 adrenergic receptor useful for the treatment or prevention of disorders related thereto” (Arena Pharmaceuticals, Inc., priority 2016, dated 2021):

These molecules were tested against Beta-3 Adrenergic Receptor (Homo sapiens (Human), UniProt P13945) (assay: HTRF cAMP antagonist assay (IC50 determination)). Details: CHO-K1 cells stably expressing recombinant receptor; antagonism of isoproterenol at EC90; cAMP readout.
Type: cell-based
Method: HTRF cAMP assays were performed according to manufacturer's instructions (Cisbio, cAMP Dynamic 2 Assay Kit; #62AM4PEJ). CHO-K1 cells stably expressing recombinant receptor were harvested and suspended in warm PBS to make a 300,000 cells/mL stock. This cell suspension was dispensed into 384 well assay plates (PerkinElmer ProxiPlate #6008280) at 5 μL per well (1500 cells/well) along with a cAMP standard curve.
Compounds were dissolved and serially diluted (5-fold) in DMSO to generate a 10-point dose response stock. The stock was then diluted 100-fold in assay buffer (PBS containing 1 mM IBMX) before a volume of 2.5 μL was added to the cells (the final, top concentration of compound in the dose-response is typically 10 or 100 μM). After a brief incubation, 2.5 μL of isoproterenol stock, prepared at a concentration 4 times its EC90 at the receptor of interest, was added to the wells. The EC90 for isoproterenol, a beta-adrenergic agonist, was determined in separate experiments using standard methods to measure agonist potencies.
Following a 1-hour incubation at room temperature, 5 μL of cAMP-D2 Reagent diluted in Lysis Buffer was added to each well followed by 5 μL of Cryptate Reagent. Plates were further incubated at room temperature for 1 hour prior to reading. Time resolved fluorescence measurements were collected on a suitable, HTRF-capable plate reader.
Counts from the plate reader were fit to the cAMP standard curve on the assay plate in order to determine cAMP concentrations in each well, and these values were used to construct dose-response curves to obtain IC50 values.

Beta-3 Adrenergic Receptor, sequence (P13945 whole entry, species assumed): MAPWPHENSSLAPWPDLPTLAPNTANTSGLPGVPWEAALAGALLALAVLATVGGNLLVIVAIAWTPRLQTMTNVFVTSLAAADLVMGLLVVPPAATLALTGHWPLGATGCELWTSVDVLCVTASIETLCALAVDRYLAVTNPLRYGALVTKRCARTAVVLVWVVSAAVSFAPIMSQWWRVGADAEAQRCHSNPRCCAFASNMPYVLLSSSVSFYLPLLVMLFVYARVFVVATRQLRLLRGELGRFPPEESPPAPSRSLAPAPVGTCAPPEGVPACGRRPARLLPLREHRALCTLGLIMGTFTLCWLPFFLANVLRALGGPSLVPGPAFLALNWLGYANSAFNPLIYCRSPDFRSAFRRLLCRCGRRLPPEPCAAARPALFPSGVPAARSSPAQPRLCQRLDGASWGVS

IC50 | SMILES
31.2 nM | O=S(=O)(CCO)c1cccc(OC[C@@H](O)CN[C@@H]2COC3(CCN(S(=O)(=O)c4ccc5ccccc5c4)CC3)C2)c1 [Compound 34, (S)-1-(3-(2-hydroxyethylsulfonyl)phenoxy)-3-((S)-8-(naphthalen-2-ylsulfonyl)-1-oxa-8-azaspiro[4.5]decan-3-ylamino)propan-2-ol]
20.3 nM | O=S(=O)(CCO)c1cccc(OC[C@@H](O)CN[C@H]2COC3(CCN(S(=O)(=O)c4ccc5ccccc5c4)CC3)C2)c1 [Compound 35, (S)-1-(3-(2-hydroxyethylsulfonyl)phenoxy)-3-((R)-8-(naphthalen-2-ylsulfonyl)-1-oxa-8-azaspiro[4.5]decan-3-ylamino)propan-2-ol]
21.5 nM | CCn1cc(-c2cccc(S(=O)(=O)N3CCC4(CC3)CC(NC[C@H](O)COc3cccc(S(C)(=O)=O)c3)CO4)c2)cn1 (stereo partly drawn) [Compound 36, (2S)-1-(8-(3-(1-ethyl-1H-pyrazol-4-yl)phenylsulfonyl)-1-oxa-8-azaspiro[4.5]decan-3-ylamino)-3-(3-(methylsulfonyl)phenoxy)propan-2-ol]
9.37 nM | CS(=O)(=O)c1cccc(OC[C@@H](O)CNC2COC3(CCN(S(=O)(=O)c4cccc(-c5cn[nH]c5)c4)CC3)C2)c1 (stereo partly drawn) [Compound 37, (2S)-1-(8-(3-(1H-pyrazol-4-yl)phenylsulfonyl)-1-oxa-8-azaspiro[4.5]decan-3-ylamino)-3-(3-(methylsulfonyl)phenoxy)propan-2-ol]
3.99 nM | CCCn1cc(-c2cccc(S(=O)(=O)N3CCC4(CC3)CC(NC[C@H](O)COc3cccc(S(C)(=O)=O)c3)CO4)c2)cn1 (stereo partly drawn) [Compound 38, (2S)-1-(3-(methylsulfonyl)phenoxy)-3-(8-(3-(1-propyl-1H-pyrazol-4-yl)phenylsulfonyl)-1-oxa-8-azaspiro[4.5]decan-3-ylamino)propan-2-ol]
70.8 nM | CS(=O)(=O)c1cccc(OC[C@@H](O)CNC2COC3(CCN(S(=O)(=O)c4cccc(-c5cnn(C6CC6)c5)c4)CC3)C2)c1 (stereo partly drawn) [Compound 39, (2S)-1-(8-(3-(1-cyclopropyl-1H-pyrazol-4-yl)phenylsulfonyl)-1-oxa-8-azaspiro[4.5]decan-3-ylamino)-3-(3-(methylsulfonyl)phenoxy)propan-2-ol]
20.3 nM | Cn1cc(-c2cccc(S(=O)(=O)N3CCC4(CC3)CC(NC[C@H](O)COc3cccc(S(C)(=O)=O)c3)CO4)c2)cn1 (stereo partly drawn) [Compound 40, (2S)-1-(8-(3-(1-methyl-1H-pyrazol-4-yl)phenylsulfonyl)-1-oxa-8-azaspiro[4.5]decan-3-ylamino)-3-(3-(methylsulfonyl)phenoxy)propan-2-ol]
13.7 nM | CS(=O)(=O)c1cccc(OC[C@@H](O)CNC2COC3(CCN(S(=O)(=O)c4cccc(-c5ccc(CN)cc5)c4)CC3)C2)c1 (stereo partly drawn) [Compound 41, (2S)-1-(8-(4′-(aminomethyl)biphenyl-3-ylsulfonyl)-1-oxa-8-azaspiro[4.5]decan-3-ylamino)-3-(3-(methylsulfonyl)phenoxy)propan-2-ol]
18.7 nM | CS(=O)(=O)c1cccc(OC[C@@H](O)CNC2COC3(CCN(S(=O)(=O)c4cccc(-c5ccc(S(N)(=O)=O)cc5)c4)CC3)C2)c1 (stereo partly drawn) [Compound 42, 3′-(3-((S)-2-hydroxy-3-(3-(methylsulfonyl)phenoxy)propylamino)-1-oxa-8-azaspiro[4.5]decan-8-ylsulfonyl)biphenyl-4-sulfonamide]
32.4 nM | CS(=O)(=O)c1cccc(OC[C@@H](O)CNC2COC3(CCN(S(=O)(=O)c4cccc(-c5ccncc5)c4)CC3)C2)c1 (stereo partly drawn) [Compound 43, (2S)-1-(3-(methylsulfonyl)phenoxy)-3-(8-(3-(pyridin-4-yl)phenylsulfonyl)-1-oxa-8-azaspiro[4.5]decan-3-ylamino)propan-2-ol]
21.5 nM | Cc1cc(-c2cccc(S(=O)(=O)N3CCC4(CC3)CC(NC[C@H](O)COc3cccc(S(C)(=O)=O)c3)CO4)c2)ccn1 (stereo partly drawn) [Compound 44, (2S)-1-(8-(3-(2-methylpyridin-4-yl)phenylsulfonyl)-1-oxa-8-azaspiro[4.5]decan-3-ylamino)-3-(3-(methylsulfonyl)phenoxy)propan-2-ol]
